The source of these data is patent US20150344540A1, “NOVEL GLP-1 RECEPTOR AGONISTS WITH CHOLESTEROL EFFLUX ACTIVITY” (NOVO NORDISK A/S, priority 2012, published 2015).

Experiment [1] relates to Mouse monocyte/macrophage cell line, RAW 264.7. The experiment in a line: Cholesterol efflux assay (3H-cholesterol, macrophage cell line). It is filed as cell-based. To be noted: RAW 264.7, 4 hrs incubation, 0.1% human serum albumin, ABCA1-mediated efflux.
Another experiment addresses human GLP-1 receptor (Homo sapiens, UniProt P43220). Description: Functional GLP-1 receptor assay, in vitro potency (CRE luciferase; whole cells). The class given is cell-based. To be noted: BHK cells expressing human GLP-1 receptor.
[2] abbreviates: GLP1R CRE luc 1% HSA EC50 Mean Value, 1% HSA.
Setting [3] is: 0% HSA, read-out: GLP1R CRE luc 0% HSA EC50 Mean Value.

pEC50: −log10 of the molar value. Read-outs that look alike come from different tables or passages of the source. Where a SMILES comes first, the peptide text is derived from it. Where no end group is shown, it is not given here. [ ]: non-standard residue; d: D form. Aib = CC(C)(N)C(=O)O

The term pEC50 denotes −log10 of the EC50, conventionally taken in molar units.

Chain of human GLP-1 receptor (P43220 24-463): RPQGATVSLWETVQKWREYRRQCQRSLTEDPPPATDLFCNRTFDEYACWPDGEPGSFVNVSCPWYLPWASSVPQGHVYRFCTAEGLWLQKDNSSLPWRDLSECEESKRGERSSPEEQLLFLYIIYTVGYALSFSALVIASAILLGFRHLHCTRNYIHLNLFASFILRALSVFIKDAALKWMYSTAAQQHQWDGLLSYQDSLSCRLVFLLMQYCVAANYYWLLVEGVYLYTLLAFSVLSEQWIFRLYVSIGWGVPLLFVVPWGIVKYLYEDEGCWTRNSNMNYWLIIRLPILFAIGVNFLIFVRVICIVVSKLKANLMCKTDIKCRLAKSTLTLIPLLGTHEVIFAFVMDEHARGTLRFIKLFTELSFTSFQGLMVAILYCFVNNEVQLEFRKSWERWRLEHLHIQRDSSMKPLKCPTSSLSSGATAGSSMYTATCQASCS

Turning to `CC[C@H](C)[C@H](NC(=O)[C@H](Cc1ccccc1)NC(=O)[C@H](CCC(=O)O)NC(=O)[C@H](CCCNC(=N)N)NC(=O)[C@@H](NC(=O)[C@H](C)NC(=O)[C@H](CCC(=O)O)NC(=O)CNC(=O)[C@H](CCC(=O)O)NC(=O)[C@H](CC(C)C)NC(=O)[C@H](Cc1ccc(O)cc1)NC(=O)[C@H](CO)NC(=O)[C@H](CO)NC(=O)[C@@H](NC(=O)[C@H](CC(=O)O)NC(=O)[C@H](CO)NC(=O)[C@@H](NC(=O)[C@H](Cc1ccccc1)NC(=O)[C@@H](NC(=O)CNC(=O)[C@H](CCC(=O)O)NC(=O)C(C)(C)NC(=O)[C@@H](N)Cc1c[nH]cn1)[C@@H](C)O)[C@@H](C)O)C(C)C)C(C)C)C(=O)N[C@@H](C)C(=O)N[C@@H](Cc1c[nH]c2ccccc12)C(=O)N[C@@H](CC(C)C)C(=O)N[C@H](C(=O)N[C@@H](CCC(=O)O)C(=O)N[C@@H](CCCNC(=N)N)C(=O)NC(C)(C)C(=O)N[C@@H](CCCCN)C(=O)N[C@@H](CCC(=O)O)C(=O)N[C@@H](Cc1ccccc1)C(=O)N[C@@H](CC(C)C)C(N)=O)C(C)C` [Compound 19, [Aib8,Glu23,Val25,Arg26,Glu34,Arg35,Aib36,Lys37]-GLP-1-(7-37)-peptidyl-Glu-Phe-Leu amide] (H-H[Aib]EGTFTSDVSSYLEGEAVREFIAWLVER[Aib]KEFL-NH2), the “4 h Cholesterol Efflux Emax” value in experiment [1] stood at 83%.

For `CC[C@H](C)[C@H](NC(=O)[C@H](Cc1ccccc1)NC(=O)[C@H](CCC(N)=O)NC(=O)[C@H](CCCCN)NC(=O)[C@@H](NC(=O)[C@H](C)NC(=O)[C@H](CCC(N)=O)NC(=O)CNC(=O)[C@H](CCC(=O)O)NC(=O)[C@H](CC(C)C)NC(=O)[C@H](Cc1ccc(O)cc1)NC(=O)[C@H](CO)NC(=O)[C@H](CO)NC(=O)[C@@H](NC(=O)[C@H](CC(=O)O)NC(=O)[C@H](CO)NC(=O)[C@@H](NC(=O)[C@H](Cc1ccccc1)NC(=O)[C@@H](NC(=O)CNC(=O)[C@H](CCC(=O)O)NC(=O)C(C)(C)NC(=O)[C@@H](N)Cc1c[nH]cn1)[C@@H](C)O)[C@@H](C)O)C(C)C)C(C)C)C(=O)N[C@@H](C)C(=O)N[C@@H](Cc1c[nH]c2ccccc12)C(=O)N[C@@H](CC(C)C)C(=O)N[C@H](C(=O)N[C@@H](CCC(N)=O)C(=O)N[C@@H](CCCCN)C(=O)NC(C)(C)C(=O)N[C@@H](CCCCN)C(=O)N[C@@H](CCC(N)=O)C(=O)N[C@@H](Cc1ccccc1)C(=O)N[C@@H](CC(C)C)C(N)=O)C(C)C` [Compound 102, [Aib8,Val25,Gln27,Gln34,Lys35,Aib36,Lys37]-GLP-1-(7-37)-peptidyl-Gln-Phe-Leu amide] (H-H[Aib]EGTFTSDVSSYLEGQAVKQFIAWLVQK[Aib]KQFL-NH2), in experiment [1], the “4 h Cholesterol Efflux Emax” value was found to be 100%.

With “H-HAEGTFTSDVSSYLEGQAAKEFIAWLVEKVKEHLEK-OH [Compound 126, [Glu34,Lys35,Val36,Lys37]-GLP-1-(7-37)-peptidyl-Glu-His-Leu-Glu-Lys]”, the “4 h Cholesterol Efflux Emax” value in experiment [1] was found to be 102%.

Molecule `CC[C@H](C)[C@H](NC(=O)[C@H](Cc1ccccc1)NC(=O)[C@H](CCC(=O)O)NC(=O)[C@H](CCCCN)NC(=O)[C@@H](NC(=O)[C@H](C)NC(=O)[C@H](CCC(=O)O)NC(=O)CNC(=O)[C@H](CCC(=O)O)NC(=O)[C@H](CC(C)C)NC(=O)[C@H](Cc1ccc(O)cc1)NC(=O)[C@H](CCC(=O)O)NC(=O)[C@@H](NC(=O)[C@@H](NC(=O)[C@H](CC(=O)O)NC(=O)[C@H](CC(N)=O)NC(=O)[C@@H](NC(=O)[C@H](Cc1ccc(O)cc1)NC(=O)[C@@H](NC(=O)CNC(=O)[C@H](CCC(=O)O)NC(=O)[C@H](C)NC(=O)[C@@H](N)Cc1c[nH]cn1)[C@@H](C)O)[C@@H](C)O)C(C)C)[C@@H](C)O)C(C)C)C(=O)N[C@@H](C)C(=O)N[C@@H](Cc1c[nH]c2ccccc12)C(=O)N[C@@H](CC(C)C)C(=O)N[C@H](C(=O)N[C@@H](CCC(=O)O)C(=O)N[C@@H](CCCCN)C(=O)NC(C)(C)C(=O)N[C@@H](CCCCN)C(=O)N[C@@H](CCC(=O)O)C(=O)N[C@@H](Cc1ccccc1)C(=O)N[C@@H](CC(C)C)C(N)=O)C(C)C` [Compound 13, [Tyr12,Asn14,Thr17,Glu18,Glu23,Val25,Glu34,Lys35,Aib36,Lys37]-GLP-1-(7-37)-peptidyl-Glu-Phe-Leu amide] (H-HAEGTYTNDVTEYLEGEAVKEFIAWLVEK[Aib]KEFL-NH2; N-terminus assumed) showed a pEC50 at human GLP-1 receptor (setting [2]) of 9.98.

Turning to “HAEGTFTSDVSSYLEGQAAKEFIAWLVEHVKEFL-NH2 [Compound 140, [Glu34,His35,Val36,Lys37]-GLP-1-(7-37)-peptidyl-Glu-Phe-Leu amide]”, the pEC50 at human GLP-1 receptor (setting [3]) is 9.99.

Consider “HAEGTFTSDVSSYLEGQAAKEFIAWLVEKVGEFL-NH2 [Compound 108]”, for which the negative-log EC50 (pEC50) was 10.23 on human GLP-1 receptor (setting [3]) and 10.77 on human GLP-1 receptor (setting [2]).

As to `CC(C)C[C@H](NC(=O)[C@H](Cc1ccccc1)NC(=O)[C@H](CCC(=O)O)NC(=O)[C@H](CCCCN)NC(=O)C(C)(C)NC(=O)[C@H](CCCCN)NC(=O)[C@H](CCC(=O)O)NC(=O)[C@H](CC(C)C)NC(=O)[C@H](CC(C)C)NC(=O)[C@H](Cc1c[nH]c2ccccc12)NC(=O)[C@H](CCC(N)=O)NC(=O)[C@@H](NC(=O)[C@H](Cc1ccccc1)NC(=O)[C@H](CCC(=O)O)NC(=O)[C@H](CCCNC(=N)N)NC(=O)[C@H](C)NC(=O)[C@H](C)NC(=O)[C@H](CCCCN)NC(=O)[C@H](CO)NC(=O)[C@H](CC(=O)O)NC(=O)[C@H](CC(C)C)NC(=O)[C@H](Cc1ccc(O)cc1)NC(=O)[C@H](CCCCN)NC(=O)[C@H](CO)NC(=O)[C@H](Cc1ccc(O)cc1)NC(=O)[C@H](CC(=O)O)NC(=O)[C@H](CO)NC(=O)[C@@H](NC(=O)[C@H](Cc1ccccc1)NC(=O)[C@@H](NC(=O)CNC(=O)[C@H](CCC(N)=O)NC(=O)[C@H](CO)NC(=O)[C@@H](N)Cc1c[nH]cn1)[C@@H](C)O)[C@@H](C)O)C(C)C)C(N)=O` [Compound 59] (H-HSQGTFTSDYSKYLDSKAAREFVQWLLEK[Aib]KEFL-NH2), the figures for the pEC50 at human GLP-1 receptor (setting [3]) and at human GLP-1 receptor (setting [2]) were 9.36 and 9.70, respectively.

On human GLP-1 receptor (setting [2]), `CC[C@H](C)[C@H](NC(=O)[C@H](Cc1ccccc1)NC(=O)[C@H](CCC(=O)O)NC(=O)[C@H](CCCCN)NC(=O)[C@@H](NC(=O)[C@H](C)NC(=O)[C@H](CCC(=O)O)NC(=O)CNC(=O)[C@H](CCC(=O)O)NC(=O)[C@H](CC(C)C)NC(=O)[C@H](Cc1ccc(O)cc1)NC(=O)[C@H](CC(N)=O)NC(=O)[C@@H](NC(=O)[C@H](CCSC)NC(=O)[C@H](CC(=O)O)NC(=O)[C@H](CC(N)=O)NC(=O)[C@@H](NC(=O)[C@H](Cc1ccccc1)NC(=O)[C@@H](NC(=O)CNC(=O)[C@H](CCC(=O)O)NC(=O)[C@H](C)NC(=O)[C@@H](N)Cc1c[nH]cn1)[C@@H](C)O)[C@@H](C)O)[C@@H](C)O)C(C)C)C(=O)N[C@@H](C)C(=O)N[C@@H](Cc1c[nH]c2ccccc12)C(=O)N[C@@H](CC(C)C)C(=O)N[C@H](C(=O)N[C@@H](CCC(=O)O)C(=O)N[C@@H](CCCCN)C(=O)NC(C)(C)C(=O)N[C@@H](CCCCN)C(=O)N[C@@H](CCC(=O)O)C(=O)N[C@@H](Cc1ccccc1)C(=O)N[C@@H](CC(C)C)C(N)=O)C(C)C` [Compound 44, [Asn14,Met16,Thr17,Asn18,Glu23,Val25,Glu34,Lys35,Aib36,Lys37]-GLP-1-(7-37)-peptidyl-Glu-Phe-Leu amide] (H-HAEGTFTNDMTNYLEGEAVKEFIAWLVEK[Aib]KEFL-NH2; N-terminus assumed) had a negative logarithm of the EC50 (pEC50) of 10.11.

As to “HAEGTFTSDVSSYLEGQAAKEFIAWLVEKVKEFY-NH2 [Compound 131, [Glu34,Lys35,Val36,Lys37]-GLP-1-(7-37)-peptidyl-Glu-Phe-Tyr amide]”, the pEC50 was 10.43 on human GLP-1 receptor (setting [3]) and 10.85 on human GLP-1 receptor (setting [2]).

As to “HAEGTFTSDVSSYLEGQAAKEFIAWLVEKVKEFL-NH2 [Compound 104, [Glu34,Lys35,Val36,Lys37]-GLP-1-(7-37)-peptidyl-Glu-Phe-Leu amide]”, the negative logarithm of the EC50 (pEC50) on human GLP-1 receptor (setting [3]) is 9.94; at human GLP-1 receptor (setting [2]), 10.64.

“HAEGTFTNDMTNYLEGEAVKEFIAWLVEKGKEFL-NH2 [Compound 27, [Asn14,Met16,Thr17,Asn18,Glu23,Val25,Glu34,Lys35,Gly36,Lys37]-GLP-1-(7-37)-peptidyl-Glu-Phe-Leu amide]” had a pEC50 at human GLP-1 receptor (setting [2]) of 10.55.

“HAEGTFTSDVSSYLEEEAVKEFIAWLVEKVKEFL-NH2 [Compound 135, [Glu22,Glu23,Val25,Glu34,Lys35,Val36,Lys37]-GLP-1-(7-37)-peptidyl-Glu-Phe-Leu amide]” showed a pEC50 on human GLP-1 receptor (setting [2]) of 9.94.

On human GLP-1 receptor (setting [2]), “HAEGTFTSDVSSYLEGQAAKEFIAWLVEKVHEFL-NH2 [Compound 141]” showed a negative-log EC50 (pEC50) of 10.52.

`CC[C@H](C)[C@H](NC(=O)[C@H](Cc1ccccc1)NC(=O)[C@H](CCC(=O)O)NC(=O)[C@H](CCCCN)NC(=O)[C@H](C)NC(=O)[C@H](C)NC(=O)[C@H](CCCCN)NC(=O)[C@H](CCC(=O)O)NC(=O)[C@H](CCC(=O)O)NC(=O)[C@H](CC(C)C)NC(=O)[C@H](Cc1ccc(O)cc1)NC(=O)[C@H](CCCCN)NC(=O)[C@H](CO)NC(=O)[C@H](Cc1ccc(O)cc1)NC(=O)[C@H](CC(=O)O)NC(=O)[C@H](CO)NC(=O)[C@@H](NC(=O)[C@H](Cc1ccccc1)NC(=O)[C@@H](NC(=O)CNC(=O)[C@H](CCC(N)=O)NC(=O)[C@H](CO)NC(=O)[C@@H](N)Cc1c[nH]cn1)[C@@H](C)O)[C@@H](C)O)C(=O)N[C@@H](C)C(=O)N[C@@H](Cc1c[nH]c2ccccc12)C(=O)N[C@@H](CC(C)C)C(=O)N[C@@H](CC(C)C)C(=O)N[C@@H](CCC(=O)O)C(=O)N[C@@H](CCCCN)C(=O)NC(C)(C)C(=O)N[C@@H](CCCCN)C(=O)N[C@@H](CCC(=O)O)C(=O)N[C@@H](Cc1ccccc1)C(=O)N[C@@H](CC(C)C)C(N)=O` [Compound 57] (H-HSQGTFTSDYSKYLEEKAAKEFIAWLLEK[Aib]KEFL-NH2): the pEC50 was 10.07 at human GLP-1 receptor (setting [3]) and 10.36 on human GLP-1 receptor (setting [2]).
